The record followed here is patent US20250270246A1, “LINCOSAMIDES AND USES THEREOF” (President and Fellows of Harvard College, priority 2022, published 2025).

Counter-ions that a name gives are not always drawn. Like-named read-outs stand apart in the source and are kept apart here.

Common to all, as to assay: MIC by broth microdilution (CLSI)
What all share (type): cell-based

One test has as its system E. coli lptD mutant. Conditions: CaMHB, 24 h incubation; for MIC: Escherichia coli, 24 h, read-out: MIC E. coli lptD mutant, lptD mutant / ΔlptD mutant. On the procedure:
(§1) Minimum inhibitory concentrations (MICs) were determined by the broth microdilution method following the Clinical and Laboratory Standards Institute (CLSI) guidelines. Test organisms consisted of standard reference strains from the American Type Culture Collection (ATCC; Manassa, VA, USA) and clinical isolates obtained from JMI Laboratories Inc. (North Liberty, IA, USA), Micromyx repository (MMX; Kalamazoo, MI, USA), and Massachusetts Eye and Ear Hospital (Boston, USA). Before the start of the MIC experiment, standard and test compound stock solutions were prepared in dimethyl sulfoxide (DMSO, Aldrich D2650) at a stock concentration of 2,560 μg/mL. The compound concentration range typically employed for each experiment was 64-0.06 μg/mL (2.5% final DMSO concentration). Iboxamycin was used as a comparator in all experiments. All bacterial strains were sub-cultured on blood agar plates (tryptic soy agar with 5% sheep blood, Hardy Diagnostics) and incubated overnight at 35° C. Organisms were suspended in cation-adjusted Mueller-Hinton broth (CaMHB, BD 212322) and optical density was adjusted to 0.5 McFarland standard. Suspensions were further diluted to obtain a final inoculum of 5×10^5 CFU/mL for broth microdilution experiments. The minimum concentration of compound required to inhibit visible bacterial growth after 24 h of incubation was recorded as the MIC in μg/mL. MICs for P. aeruginosa were recorded in cation-adjusted Mueller-Hinton broth which had been pre-treated with Chelex 100 ion exchange resin according to procedures reported in Ito et al. Antimicrob Agents Chemother (2016) 60 (12), 7396-7401.

Another test relates to S. aureus MMX 3035. Conditions: for MIC: Staphylococcus aureus, MMX3035, 24 h, read-out: MIC S. aureus MMX 3035. On the procedure:
as §1

The test system of the next test is S. aureus Clinical (cfr). Conditions: for MIC: Staphylococcus aureus, 24 h, read-out: MIC S. aureus Clinical (cfr). As to the method: as §1
Test [1] relates to S. aureus ATCC 29213 (HAV#001). The note with it: for MIC: Staphylococcus aureus, ATCC29213, 24 h, read-out: MIC S. aureus ATCC 29213. As to the method:
as §1

Test [2] relates to A. baumannii ATCC 19606 (HAV#010). Conditions: HAV#010, ATCC 19606, CaMHB, 24 h incubation; for MIC: Acinetobacter baumannii, ATCC19606, 24 h, read-out: MIC A. baumannii ATCC 19606. As to the method:
as §1

For test [3], the system named is E. faecalis ATCC 29212 (HAV#005). Conditions: for MIC: Enterococcus faecalis, ATCC29212, 24 h, read-out: MIC E. faecalis ATCC 29212. On the procedure: as §1
The subject of another test is E. faecium JMI-990536. The note with it: JMI-990536, CaMHB, 24 h incubation; for MIC: Enterococcus faecium, JMI990536, 24 h, read-out: MIC E. faecium JMI-990536. On the procedure:
as §1

The next test has as its system K. pneumoniae JMI-991193. The note with it: Klebsiella pneumoniae, JMI991193, 24 h, read-out: MIC K. pneumoniae JMI-991193. On the procedure:
as §1

The test system of test [4] is E. coli ATCC 25922 (HAV#006). The note with it: for MIC: Escherichia coli, ATCC25922, 24 h, read-out: MIC E. coli ATCC 25922. As to the method: as §1
The test system of a further test is E. coli ΔtolC. The note with it: CaMHB, 24 h incubation; for MIC: Escherichia coli, 24 h, read-out: MIC E. coli ΔtolC, ΔtolC. As to the method:
as §1

The mark [5] stands for this setting: MMX 3035, CaMHB, 24 h incubation.
The mark [6] stands for this setting: Clinical (cfr), CaMHB, 24 h incubation.
Setting [7] is: HAV#001, ATCC 29213, CaMHB, 24 h incubation.
Where [8] appears, read: HAV#005, ATCC 29212, CaMHB, 24 h incubation.
The mark [9] stands for this setting: JMI-991193, CaMHB, 24 h incubation.
[10] abbreviates: HAV#006, ATCC 25922, CaMHB, 24 h incubation.

Turning to `CC(C)C[C@@H]1CCO[C@@H]2[C@H](CN[C@@H]2C(=O)N[C@@H]2C/C=C/[C@@H](CO)CSC3O[C@H]2C(O)C(O)[C@H]3O)C1` (single isomer, unassigned) [FSA1608025A, formate salt], the MIC with E. coli lptD mutant is 8 µg/mL; in the test on S. aureus MMX 3035 (setting [5]), 64 µg/mL; in the test with S. aureus Clinical (cfr) (setting [6]) it was 64 µg/mL; in test [1] (setting [7]), 4 µg/mL; in test [2], above 64 µg/mL; in test [3] (setting [8]), 4 µg/mL. The MIC was 8 µg/mL in the test with E. faecium JMI-990536, above 64 µg/mL with K. pneumoniae JMI-991193 (setting [9]) and 32 µg/mL in test [4] (setting [10]).
With `CC(C)C[C@@H]1CCO[C@@H]2[C@H](CN[C@@H]2C(=O)N[C@@H]2C/C=C/[C@H](CO)CSC3O[C@H]2C(O)C(O)[C@H]3O)C1` (single isomer, unassigned) [FSA1608025B, formate salt], the MIC with E. coli ΔtolC is above 64 µg/mL; in the test with E. coli lptD mutant, above 64 µg/mL; in the test on S. aureus MMX 3035 (setting [5]), above 64 µg/mL; in the test with S. aureus Clinical (cfr) (setting [6]), above 64 µg/mL; in test [1] (setting [7]), 32 µg/mL; in [2], above 64 µg/mL. The MIC is 32 µg/mL in [3] (setting [8]), 32 µg/mL in the test on E. faecium JMI-990536, above 64 µg/mL with K. pneumoniae JMI-991193 (setting [9]) and above 64 µg/mL in test [4] (setting [10]).
`CC(C)C[C@@H]1CCO[C@@H]2[C@H](CN[C@@H]2C(=O)N[C@@H]2C(C)/C=C/CCCSC3OC2C(O)C(O)C3O)C1` (stereo in doubt) [FSA1609094, (4S,5aS,8S,8aR)-4-isobutyl-N-((1R,8S,9R,10R,11R,12S,13R,E)-11,12,13-trihydroxy-8-methyl-14-oxa-2-thiabicyclo[8.3.1]tetradec-6-en-9-yl) octahydro-2H-oxepino[2,3-c]pyrrole-8-carboxamide formate salt]: in the test with E. coli ΔtolC (ΔtolC, formate salt), the “MIC E. coli ΔtolC” value was 32 µg/mL. In the test with E. coli lptD mutant (lptD mutant / ΔlptD mutant, formate salt), the “MIC E. coli lptD mutant” value was 32 µg/mL. Besides, the “MIC S. aureus MMX 3035” value in the test on S. aureus MMX 3035 (MMX 3035, CaMHB, 24 h incubation, formate salt) is above 32 µg/mL. Further, in the test with S. aureus Clinical (cfr) (Clinical (cfr), CaMHB, 24 h incubation, formate salt), the “MIC S. aureus Clinical (cfr)” value is above 32 µg/mL. In test [1] (HAV#001, ATCC 29213, CaMHB, 24 h incubation, formate salt), the “MIC S. aureus ATCC 29213” value was determined as 0.25 µg/mL. Besides, the “MIC A. baumannii ATCC 19606” value in test [2] (formate salt) is above 32 µg/mL. In addition, the “MIC E. faecalis ATCC 29212” value in test [3] (HAV#005, ATCC 29212, CaMHB, 24 h incubation, formate salt) was 2 µg/mL. Besides, the “MIC E. faecium JMI-990536” value with E. faecium JMI-990536 (formate salt) is above 32 µg/mL. Further, in the test with K. pneumoniae JMI-991193 (setting [9]), the MIC was above 32 µg/mL. Moreover, the “MIC E. coli ATCC 25922” value in test [4] (HAV#006, ATCC 25922, CaMHB, 24 h incubation, formate salt) is above 32 µg/mL.
On to `CC(C)C[C@@H]1CCO[C@@H]2[C@H](CN[C@@H]2C(=O)N[C@@H]2C/C=C/[C@@H](O)CS[C@H]3O[C@H]2[C@H](O)[C@H](O)[C@H]3O)C1` [FSA1608016, (4S,5aS,8S,8aR)-4-isobutyl-N-((1R,4R,8R,9R,10R,11S,12R,E)-4,10,11,12-tetrahydroxy-13-oxa-2-thiabicyclo[7.3.1]tridec-5-en-8-yl) octahydro-2H-oxepino[2,3-c]pyrrole-8-carboxamide formate salt], for which the MIC with E. coli lptD mutant is 8 µg/mL; in the test on S. aureus MMX 3035 (setting [5]) it was above 64 µg/mL; with S. aureus Clinical (cfr) (setting [6]), above 64 µg/mL; in test [1] (setting [7]), 8 µg/mL; in test [2] it was above 64 µg/mL; in [3] (setting [8]) it was 8 µg/mL. The values for the MIC (in the test with E. faecium JMI-990536; with K. pneumoniae JMI-991193 (setting [9]); in [4] (setting [10])) were 8 µg/mL, above 64 µg/mL and 64 µg/mL, respectively.
On to `CC(C)C[C@@H]1CCO[C@@H]2[C@H](CN[C@@H]2C(=O)N[C@@H]2C/C=C\[C@@H](CO)CS[C@H]3O[C@H]2[C@H](O)[C@H](O)[C@H]3O)C1` [FSA1608024, (4S,5aS,8S,8aR)-4-isobutyl-N-((1R,4S,8R,9R,10R,11S,12R,Z)-10,11,12-trihydroxy-4-(hydroxymethyl)-13-oxa-2-thiabicyclo[7.3.1]tridec-5-en-8-yl) octahydro-2H-oxepino[2,3-c]pyrrole-8-carboxamide formate salt], for which the MIC in the test on E. coli lptD mutant was 4 µg/mL; in the test with S. aureus MMX 3035 (setting [5]), 64 µg/mL; in the test on S. aureus Clinical (cfr) (setting [6]), 64 µg/mL; in test [1] (setting [7]), 4 µg/mL; in [2] it was above 64 µg/mL; in test [3] (setting [8]) it was 2 µg/mL. In addition, the MIC in the test on E. faecium JMI-990536 is 2 µg/mL; in the test on K. pneumoniae JMI-991193 (setting [9]), above 64 µg/mL; in test [4] (setting [10]) it was 16 µg/mL.
As to `CC(C)C[C@@H]1CCO[C@@H]2[C@H](CN[C@@H]2C(=O)N[C@@H]2C/C=C\[C@@H](CN3CCOCC3)CS[C@H]3O[C@H]2[C@H](O)[C@H](O)[C@H]3O)C1` [FSA1608036, (4S,5aS,8S,8aR)-4-isobutyl-N-((1R,4S,8R,9R,10R,11S,12R,Z)-10,11,12-trihydroxy-4-(morpholinomethyl)-13-oxa-2-thiabicyclo[7.3.1]tridec-5-en-8-yl) octahydro-2H-oxepino[2,3-c]pyrrole-8-carboxamide formate salt], the MIC with E. coli ΔtolC came to 0.25 µg/mL; with S. aureus MMX 3035 (setting [5]), 16 µg/mL; with S. aureus Clinical (cfr) (setting [6]), 8 µg/mL; in [1] (setting [7]), 0.5 µg/mL; in test [2] it was 16 µg/mL; in test [3] (setting [8]) it was 1 µg/mL. The values for the MIC (with E. faecium JMI-990536; in the test on K. pneumoniae JMI-991193 (setting [9]); in test [4] (setting [10])) were 1 µg/mL, 8 µg/mL and 1 µg/mL, respectively.
As for `CC(C)C[C@@H]1CCO[C@@H]2[C@H](CN[C@@H]2C(=O)N[C@@H]2C/C=C\[C@@H](CN3CCCC3)CS[C@H]3O[C@H]2[C@H](O)[C@H](O)[C@H]3O)C1` [FSA1608037, (4S,5aS,8S,8aR)-4-isobutyl-N-((1R,4S,8R,9R,10R,11S,12R,Z)-10,11,12-trihydroxy-4-(pyrrolidin-1-ylmethyl)-13-oxa-2-thiabicyclo[7.3.1]tridec-5-en-8-yl) octahydro-2H-oxepino[2,3-c]pyrrole-8-carboxamide formate salt], the MIC in the test with E. coli lptD mutant was 4 µg/mL; in the test with S. aureus MMX 3035 (setting [5]) it was above 64 µg/mL; in the test with S. aureus Clinical (cfr) (setting [6]), above 64 µg/mL; in [1] (setting [7]) it was 32 µg/mL; in [2] it was above 64 µg/mL; in test [3] (setting [8]), 16 µg/mL. Further, the values for the MIC (in the test with E. faecium JMI-990536; with K. pneumoniae JMI-991193 (setting [9]); in test [4] (setting [10])) were 16 µg/mL, above 64 µg/mL and above 64 µg/mL, respectively.
Regarding `CC(C)C[C@@H]1CCO[C@@H]2[C@H](CN[C@@H]2C(=O)N[C@H]2[C@H]3O[C@H](S[C@H](c4cn(-c5ccc(F)cc5)nn4)C/C=C\[C@H]2C)[C@H](O)[C@@H](O)[C@H]3O)C1` [FSA1609037, (4S,5aS,8S,8aR)—N-((1R,3S,7R,8R,9R,10R,11S,12R,Z)-3-(1-(4-fluorophenyl)-1H-1,2,3-triazol-4-yl)-10,11,12-trihydroxy-7-methyl-13-oxa-2-thiabicyclo[7.3.1]tridec-5-en-8-yl)-4-isobutyloctahydro-2H-oxepino[2,3-c]pyrrole-8-carboxamide formate salt], the MIC in the test on E. coli ΔtolC was 0.5 µg/mL; with E. coli lptD mutant it was 0.5 µg/mL; in the test on S. aureus MMX 3035, 0.5 µg/mL; in the test with S. aureus Clinical (cfr) it was 1 µg/mL; in test [1], 0.5 µg/mL; in test [3], 0.25 µg/mL. Also, the MIC in the test with K. pneumoniae JMI-991193 came to 16 µg/mL; in [4], 1 µg/mL.
